The values that follow are results of earlier work, collected in US8585707B2, “Continuous low irradiance photodynamic therapy method” (priority 2006, dated 2013).

The conditions of this series: after intravenous administration, attributed to extended half-life.

In the case of Photofrin, the “time the level of drug in the tissue remains stable” value is given as “over 36 hours”.
